Measurements taken from patent US9488914B2, “Fluorine-containing sulfonic acid salt, fluorine-containing sulfonic acid salt resin, resist composition, and pattern forming method using same” (Central Glass Company, Limited, priority 2012, dated 2016).

Assay: Solubility of polymerizable fluorine-containing sulfonic acid onium salts in PGMEA
Conditions: amount (g) of polymerizable monomer dissolved in 100 g of PGMEA

Compound	Solubility [g/100 g]
C=C(COCC(F)(F)S(=O)(=O)O)C(=O)OC1CCOC1=O (stereo not shown) [PAG-1, Triphenylsulfonium 2-[2-(2-oxotetrahydrofuran-3-yloxycarbonyl)-2-methyleneethoxy]-1,1-difluoroethanesulfonate]	38
C=C(COCCC(F)(F)C(F)(F)S(=O)(=O)[O-])C(=O)OC1CC2CC1CC2CC(OC(C)=O)(C(F)(F)F)C(F)(F)F.c1ccc(-[s+]2c3ccccc3c3ccccc32)cc1 (stereo not shown) [PAG-2, Phenyldibenzothiophenium 4-[2-(3,3,3-trifluoro-2-acetyloxy-2-(trifluoromethyl)propyl)bicyclo[2.2.1]hepta-2-yloxycarbonyl-2-methyleneethoxy]-1,1,2,2-tetrafluorobutanesulfonate]	50
C=C(COCC(F)(F)S(=O)(=O)O)C(=O)OC1CC(C(O)(C(F)(F)F)C(F)(F)F)CC(C(O)(C(F)(F)F)C(F)(F)F)C1 (stereo not shown) [PAG-3, Diphenyl-p-tolylsulfonium 2-[2-(3,5-bis(hexafluoro-2-hydroxypropan-2-yl)cyclohexyloxycarbonyl)-2-methyleneethoxy]-1,1-difluoroethanesulfonate]	55
C=C(COC(CCCC)C(F)(F)S(=O)(=O)[O-])C(=O)Oc1ccc(C(O)(C(F)(F)F)C(F)(F)F)cc1.Cc1ccc([S+](c2ccc(C)cc2)c2ccc(C)cc2)cc1 (stereo not shown) [PAG-11, Tri-p-tolylsulfonium 2-[4-(2,2,2-trifluoro-1-hydroxy-1-(trifluoromethyl)ethylphenoxycarbonyl)-2-methylene-ethoxy]-1,1-difluorohexanesulfonate]	45
Triphenylsulfonium 2-[2-(1,1,1-trifluoro-2-hydroxy-2-(trifluoromethyl)penta-5-yloxycarbonyl)-2-methyleneethoxy]-1,1-difluoroethanesulfonate [PAG-13]	47

The next lines start with the values.

Solubility [g/100 g]	Compound
42	C=C(COCCC(F)(F)C(F)(F)S(=O)(=O)O)C(=O)Oc1ccc2sc(=O)oc2c1 [PAG-8]
42	C=C(COCCCC(F)(F)S(=O)(=O)O)C(=O)OC1CC2CC1C1COC(=O)C21 (stereo not shown) [PAG-15, [(4-trifluoromethyl)phenyl]diphenylsulfonium 4-(4-oxa-tricyclo[5.2.1.0(2,6)]decan-3-on-8-yloxycarbonyl-2-methylene-ethoxy)-1,1-difluorobutanesulfonate]
